From US9873696B2, “Neprilysin inhibitors” (THERAVANCE BIOPHARMA R&D IP, LLC, priority 2010, dated 2018) come the findings set out here.

pKi: −log10 of the molar value.

In general, pKi refers to the Ki on a negative log10 scale, so that one unit is a factor of ten.

T1 sequence (P08473 whole entry): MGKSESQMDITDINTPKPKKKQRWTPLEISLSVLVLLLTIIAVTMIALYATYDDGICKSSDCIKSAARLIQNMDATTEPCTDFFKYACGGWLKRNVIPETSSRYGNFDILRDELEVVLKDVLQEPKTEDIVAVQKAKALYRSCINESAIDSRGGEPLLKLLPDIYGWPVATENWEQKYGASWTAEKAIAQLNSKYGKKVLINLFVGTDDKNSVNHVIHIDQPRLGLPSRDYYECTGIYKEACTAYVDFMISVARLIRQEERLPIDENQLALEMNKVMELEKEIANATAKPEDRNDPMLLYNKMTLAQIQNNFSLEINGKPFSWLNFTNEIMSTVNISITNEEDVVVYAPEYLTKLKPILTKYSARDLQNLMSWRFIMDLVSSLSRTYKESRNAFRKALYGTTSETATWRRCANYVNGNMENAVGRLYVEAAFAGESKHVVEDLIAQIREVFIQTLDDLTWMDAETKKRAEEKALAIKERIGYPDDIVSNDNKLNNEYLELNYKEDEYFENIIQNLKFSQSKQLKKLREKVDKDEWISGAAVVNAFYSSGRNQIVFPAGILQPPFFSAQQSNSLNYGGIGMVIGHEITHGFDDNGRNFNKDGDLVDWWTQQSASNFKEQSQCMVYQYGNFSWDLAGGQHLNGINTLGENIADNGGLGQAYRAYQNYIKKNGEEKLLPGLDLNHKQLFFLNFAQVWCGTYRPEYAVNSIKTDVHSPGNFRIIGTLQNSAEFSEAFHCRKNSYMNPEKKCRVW

This experiment addresses T1, human NEP (Homo sapiens, UniProt P08473).
T1 construct: purchased R&D Systems, Minneapolis, Minn; 1182-ZN
Put plainly: In vitro enzyme inhibition assay at human NEP (Assay 1). To be noted: recombinant enzyme, fluorogenic peptide substrate, 37° C. Format: biochemical. The method in brief:
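Recombinant enzyme preincubated with compound 30 min at 37 °C, then 10 μM Mca-D-Arg-Arg-Leu-Dap-(Dnp)-OH added in 50 mM HEPES pH 7.5, 100 mM NaCl, 0.01% Tween-20, 10 μM ZnSO4; stopped after 20 min with acetic acid. Fluorescence read at 320/405 nm; Ki from nonlinear fit of v=v0/[1+(I/K′)], reported as pKi.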
For `COc1ccccc1-c1cc(C(=O)NN(Cc2ccc(-c3cccc(Cl)c3)cc2)C[C@@H](O)C(=O)O)[nH]n1` [Example 4-20, (R)-3-{N-(3′-Chlorobiphenyl-4-ylmethyl)-N′-[5-(2-methoxy-phenyl)-2H-pyrazole-3-carbonyl]-hydrazino}-2-hydroxy-propionic acid], the negative-log Ki (pKi) was 8.00 to 8.90.
For the compound `O=C(NN(Cc1ccc(-c2ccccc2)cc1)C[C@H](O)C(=O)O)c1nnc[nH]1` [Example 2-20, (S)-3-[N-Biphenyl-4-ylmethyl-N′-(4H-[1,2,4]triazole-3-carbonyl)hydrazino]-2-hydroxypropionic acid], the pKi is 6.00 to 6.90.
As for `O=C(NN(Cc1ccc(-c2ccccc2)cc1F)C[C@@H](O)C(=O)O)c1cc(O)no1` [Example 10-1, (R)-3-[N-(3-Fluoro-biphenyl-4-ylmethyl)-N′-(3-hydroxy-isoxazole-5-carbonyl)-hydrazino]-2-hydroxy-propionic acid], the figure is 8.00 to 8.90; as for `O=C(O)c1cc(C(=O)NN(Cc2ccc(-c3cccc(Cl)c3)cc2)C[C@@H](O)C(=O)O)ncn1` [Example 4-35, 6-[N′-((R)-2-Carboxy-2-hydroxy-ethyl)-N′-(3′-chlorobiphenyl-4-ylmethyl)-hydrazinocarbonyl]-pyrimidine-4-carboxylic acid], at least 9.00; as for `CC(C)(O)c1cc(C(=O)NN(Cc2ccc(-c3cccc(Cl)c3)cc2)C[C@@H](O)C(=O)O)[nH]n1` [Example 4-27, (R)-3-{N-(3′-Chlorobiphenyl-4-ylmethyl)-N′-[5-(1-hydroxy-1-methyl-ethyl)-2H-pyrazole-3-carbonyl]-hydrazino}-2-hydroxy-propionic acid], 8.00 to 8.90.
As for `O=C(NN(Cc1ccc(-c2cc(Cl)ccc2F)cc1)C[C@@H](O)C(=O)O)c1cc(-c2cccnc2)on1` [Example 8-34, (R)-3-[N-(5′-Chloro-2′-fluoro-biphenyl-4-ylmethyl)-N′-(5-pyridin-3-yl-isoxazole-3-carbonyl)-hydrazino]-2-hydroxy-propionic acid], the figure is 8.00 to 8.90.
For `O=C(NN(Cc1ccc(-c2ccccc2)cc1)C[C@@H](O)C(=O)O)c1cc(C(=O)N2CCCCC2)n[nH]1` [Example 2-14, (R)-3-{N-Biphenyl-4-ylmethyl-N′-[5-(piperidine-1-carbonyl)-2H-pyrazole-3-carbonyl]hydrazino}-2-hydroxypropionic acid], the negative logarithm of the Ki (pKi) is 7.00 to 7.90.
In the case of `COc1ccccc1C(=O)Nc1cc(C(=O)NN(Cc2ccc(-c3cc(Cl)ccc3F)cc2)C[C@@H](O)C(=O)O)[nH]n1` [Example 8-49, (R)-3-{N-(5′-Chloro-2′-fluoro-biphenyl-4-ylmethyl)-N′-[5-(2-methoxy-benzoylamino)-2H-pyrazole-3-carbonyl]-hydrazino}-2-hydroxy-propionic acid], the negative logarithm of the Ki (pKi) is at least 9.00.
In the case of `CC(=O)c1cc(C(=O)NN(Cc2ccc(-c3cc(Cl)ccc3Cl)cc2)C[C@H](O)C(=O)O)[nH]n1` [Example 8-48, (S)-3-[N′-(5-Acetyl-2H-pyrazole-3-carbonyl)-N-(2′,5′-dichloro-biphenyl-4-ylmethyl)-hydrazino]-2-hydroxy-propionic acid] it was 8.00 to 8.90; in that of `O=C(NN(Cc1ccc(-c2cccc(Cl)c2)cc1)C[C@@H](O)C(=O)O)c1c[nH]c(=O)o1` [Example 4-39, (R)-3-[N-(3′-Chlorobiphenyl-4-ylmethyl)-N′-(2-oxo-2,3-dihydro-oxazole-5-carbonyl)-hydrazino]-2-hydroxy-propionic acid], 8.00 to 8.90; in that of `COCc1cc(C(=O)NN(Cc2ccc(-c3cccc(Cl)c3)cc2)C[C@@H](O)C(=O)O)[nH]n1` [Example 4-26, (R)-3-[N-(3′-Chlorobiphenyl-4-ylmethyl)-N′-(5-methoxymethyl-2H-pyrazole-3-carbonyl)-hydrazino]-2-hydroxy-propionic acid], 8.00 to 8.90.
For `O=C(NN(Cc1ccc(-c2cc(Cl)ccc2Cl)cc1)C[C@@H](O)C(=O)O)c1nnn[nH]1` [Example 8-60, (R)-3-[N-(2′,5′-Dichloro-biphenyl-4-ylmethyl)-N′-(1H-tetrazole-5-carbonyl)-hydrazino]-2-hydroxy-propionic acid], the negative-log Ki (pKi) is at least 9.00.
As for `O=C(NN(Cc1ccc(-c2cc(Cl)ccc2F)cc1)C[C@@H](O)C(=O)O)c1nn(-c2ccc(F)cc2)c(=O)[nH]1` [Example 8-65, (R)-3-{N-(5′-Chloro-2′-fluoro-biphenyl-4-ylmethyl)-N′-[1-(4-fluoro-phenyl)-5-oxo-4,5-dihydro-1H-[1,2,4]triazole-3-carbonyl]-hydrazino}-2-hydroxy-propionic acid], the figure is 8.00 to 8.90.
As for `NS(=O)(=O)CCNC(=O)c1cc(C(=O)NN(Cc2ccc(-c3ccccc3)cc2)C[C@@H](O)C(=O)O)[nH]n1` [Example 2-3, (R)-3-{N-Biphenyl-4-ylmethyl-N′-[5-(2-sulfamoylethylcarbamoyl)-2H-pyrazole-3-carbonyl]hydrazino}-2-hydroxypropionic acid], the figure is 8.00 to 8.90.
In the case of `CN(C)C(=O)c1cc(C(=O)NN(Cc2ccc(-c3cc(Cl)ccc3F)cc2)C[C@@H](O)C(=O)O)[nH]n1` [Example 8-35, (R)-3-[N-(5′-Chloro-2′-fluoro-biphenyl-4-ylmethyl)-N′-(5-dimethylcarbamoyl-2H-pyrazole-3-carbonyl)-hydrazino]-2-hydroxy-propionic acid] it was at least 9.00; in that of `O=C(O)c1cc(C(=O)NN(Cc2ccc(-c3cccc(Cl)c3)cc2)C[C@@H](O)C(=O)O)[nH]n1` [Example 4-23, 5-[N′-((R)-2-Carboxy-2-hydroxy-ethyl)-N′-(3′-chlorobiphenyl-4-ylmethyl)-hydrazinocarbonyl]-1H-pyrazole-3-carboxylic acid], at least 9.00.
Turning to `O=C(NN(Cc1ccc(-c2cccc(Cl)c2)cc1)C[C@@H](O)C(=O)O)c1cn(O)nn1` [Example 4-4, (R)-3-[N-(3′-Chlorobiphenyl-4-ylmethyl)-N′-(1-hydroxy-1H-[1,2,3]triazole-4-carbonyl)-hydrazino]-2-hydroxy-propionic acid], the pKi is at least 9.00.
On to `CC(C)(O)c1cc(C(=O)NN(Cc2ccc(-c3cc(Cl)ccc3F)cc2)C[C@@H](O)C(=O)O)[nH]n1` [Example 8-40, (R)-3-{N-(5′-Chloro-2′-fluoro-biphenyl-4-ylmethyl)-N′-[5-(1-hydroxy-1-methyl-ethyl)-2H-pyrazole-3-carbonyl]-hydrazino}-2-hydroxy-propionic acid], for which the pKi is at least 9.00.
As for `O=C(NN(Cc1ccc(-c2ccccc2)cc1)C[C@@H](O)C(=O)O)c1cc(C(=O)N2CCC2)n[nH]1` [Example 2-8, (R)-3-{N′-[5-(Azetidine-1-carbonyl)-2H-pyrazole-3-carbonyl]-N-biphenyl-4-ylmethylhydrazino}-2-hydroxypropionic acid], the figure is 8.00 to 8.90; as for `O=C(NN(Cc1ccc(-c2cccc(Cl)c2)cc1)C[C@@H](O)C(=O)O)c1cc(C2CC2)[nH]n1` [Example 4-10, (R)-3-[N-(3′-Chlorobiphenyl-4-ylmethyl)-N′-(5-cyclopropyl-1H-pyrazole-3-carbonyl)-hydrazino]-2-hydroxy-propionic acid], 8.00 to 8.90.
For the compound `O=C(NN(Cc1ccc(-c2cc(Cl)ccc2F)cc1)C[C@@H](O)C(=O)O)c1cc(-c2ccccn2)n[nH]1` [Example 8-36, (R)-3-[N-(5′-Chloro-2′-fluoro-biphenyl-4-ylmethyl)-N′-(5-pyridin-2-yl-2H-pyrazole-3-carbonyl)-hydrazino]-2-hydroxy-propionic acid], the pKi is at least 9.00.
In the case of `O=C(NN(Cc1ccc(-c2ccccc2)cc1)C[C@@H](O)C(=O)O)c1cnn[nH]1` [Example 2-21, (R)-3-[N-Biphenyl-4-ylmethyl-N′-(3H-[1,2,3]triazole-4-carbonyl)hydrazino]-2-hydroxypropionic acid] it was 7.00 to 7.90.
Consider `O=C(NN(Cc1ccc(-c2cc(Cl)ccc2F)cc1)C[C@@H](O)C(=O)O)c1cc(F)c2nn[nH]c2c1` [Example 8-73, (R)-3-[N-(5′-Chloro-2′-fluoro-biphenyl-4-ylmethyl)-N′-(7-fluoro-3H-benzotriazole-5-carbonyl)-hydrazino]-2-hydroxy-propionic acid], for which the pKi was at least 9.00.
In the case of `CC(=O)c1cc(C(=O)NN(Cc2ccc(-c3cc(Cl)ccc3F)cc2)C[C@H](O)C(=O)O)[nH]n1` [Example 8-45, (S)-3-[N′-(5-Acetyl-2H-pyrazole-3-carbonyl)-N-(5′-chloro-2′-fluoro-biphenyl-4-ylmethyl)-hydrazino]-2-hydroxy-propionic acid] it was at least 9.00.
Regarding `O=C(NN(Cc1ccc(-c2cc(Cl)ccc2F)cc1)C[C@@H](O)C(=O)O)c1cnn[nH]1` [Example 8-75, (R)-3-[N-(5′-Chloro-2′-fluoro-biphenyl-4-ylmethyl)-N′-(3H-[1,2,3]triazole-4-carbonyl)-hydrazino]-2-hydroxy-propionic acid], the pKi was at least 9.00.
As to `COc1ccccc1-c1cc(C(=O)NN(Cc2ccc(-c3cccc(Cl)c3)cc2)C[C@@H](O)C(=O)O)on1` [Example 4-30, (R)-3-{N-(3′-Chlorobiphenyl-4-ylmethyl)-N′-[3-(2-methoxy-phenyl)-isoxazole-5-carbonyl]-hydrazino}-2-hydroxy-propionic acid], the pKi was 8.00 to 8.90.
In the case of `Cc1ccc(Cl)cc1-c1ccc(CN(C[C@@H](O)C(=O)O)NC(=O)c2cc(O)no2)cc1` [Example 8-1, (R)-3-[N-(5′-Chloro-2′-methyl-biphenyl-4-ylmethyl)-N′-(3-hydroxy-isoxazole-5-carbonyl)-hydrazino]-2-hydroxy-propionic acid] it was at least 9.00.
As for `O=C(NN(Cc1ccc(-c2cc(F)ccc2O)cc1)C[C@H](O)C(=O)O)c1cc(O)no1` [Example 8-5, (S)-3-[N-(5′-Fluoro-2′-hydroxy-biphenyl-4-ylmethyl)-N′-(3-hydroxy-isoxazole-5-carbonyl)-hydrazino]-2-hydroxy-propionic acid], the figure is 8.00 to 8.90.
